Where two headings read alike, the source gives them in different places.
Legend:
KM12 cells = test: Cell viability assay (CellTiter-Glo) in KM12 cells; type: cell-based; conditions: Homo sapiens
TPM3-TRKA fusion protein = TPM3-TRKA fusion protein (Homo sapiens, UniProt P04629+P06753+Q96SW2); test: Immunoblotting of TPM3-TRKA in KM12 subcutaneous xenograft tumors; type: in vivo, Athymic nude mice; design: The resulted chimeric proteins always retain the kinase domain of TRK proteins; TPM3 (N-terminal fusion partner, natural gene fusion); from tissue; host or cells: KM12 subcutaneous xenograft tumors in athymic nude mice; conditions: intraperitoneal or oral administration, eight hours after administration (FIG. 10)
Method: In addition to cultured cells, athymic nude mice bearing KM12 subcutaneous xenograft tumors at the right flank were intraperitoneally treated with 10, 20, or 50 mg/kg CPD-053, CPD-027, or CPD-060. Four hours after drug administration, animals were sacrificed for immunoblotting of TPM3-TPKA in homogenized xenograft tumor masses. The label “a” or “b” represents two different samples of the same xenograft tumor.
Athymic nude mice bearing KM12 subcutaneous xenograft tumors at the right flank were intraperitoneally treated with 10, 20, or 50 mg/kg CPD-053, CPD-027, or CPD-060, as indicated in FIG. 3. Four hours after drug administration, animals were sacrificed for immunoblotting of TPM3-TPKA in homogenized xenograft tumor chunks. The label “a” or “b” represents two different chunks of the same xenograft tumor.
Athymic nude mice bearing KM12 subcutaneous xenograft tumors at the right flank were intraperitoneally or orally treated with bivalent compounds at indicated dose. Eight hours after drug administration, animals were sacrificed for immunoblotting of TPM3-TPKA in homogenized xenograft tumor samples.
Cultured cells were washed with cold PBS once and lysed in cold RIPA buffer supplemented with protease inhibitors and phosphatase inhibitors (Beyotime Biotechnology). The solutions were then incubated at 4° C. for 30 minutes with gentle agitation to fully lyse cells. For tumor tissues, tumors were cut into small pieces, milled with cold RIPA buffer using a mechanical homogenizer and lysed for 1 hour at 4° C. Cell lysates were centrifuged at 13,000 rpm for 10 minutes at 4° C. and pellets were discarded. Total protein concentrations in the lysates were determined by BCA assays (Beyotime Biotechnology). Cell lysates were mixed with Laemmli loading buffer to 1× and heated at 99° C. for 5 min. Proteins were resolved on SDS-PAGE and visualized by chemiluminescence. Images were taken by a ChemiDoc MP Imaging system (Bio-Rad). Protein bands were quantitated using the software provided by Bio-Rad.
All animal experiments were performed under protocols approved by the Institutional Animal Care and Use Committee (IACUC) of Cullgen. Athymic nude mice (male, 5-weeks old) received 5 million KM12 cells subcutaneously inoculated at the right flank site. Ten days following inoculation, tumors were approximately 500 mm3 in size. Tumor-bearing mice were treated intraperitoneally with vehicle or bivalent compounds at indicated doses. Tumor sizes and body weight of mice were measured every 2 days. In addition, immunoblotting assays were employed to assess the levels of TRKA fusion proteins in xenograft tumors around 500 mm^3 in size following drug administration. At indicated hours after drug administration, selected mice were sacrificed, tumors were resected. Small chunks of tumors were homogenized for immunoblotting of TPM3-TPKA and other proteins as indicated.

[1] = 72 h, Table 3, KM12 cell viability, CellTiter-Glo, 3 days, read-out: IC50
[2] = 72 h, Table 4, KM12 cell viability, CellTiter-Glo, 3 days, read-out: IC50

Sequence of TPM3-TRKA fusion protein (P06753+P04629 fused): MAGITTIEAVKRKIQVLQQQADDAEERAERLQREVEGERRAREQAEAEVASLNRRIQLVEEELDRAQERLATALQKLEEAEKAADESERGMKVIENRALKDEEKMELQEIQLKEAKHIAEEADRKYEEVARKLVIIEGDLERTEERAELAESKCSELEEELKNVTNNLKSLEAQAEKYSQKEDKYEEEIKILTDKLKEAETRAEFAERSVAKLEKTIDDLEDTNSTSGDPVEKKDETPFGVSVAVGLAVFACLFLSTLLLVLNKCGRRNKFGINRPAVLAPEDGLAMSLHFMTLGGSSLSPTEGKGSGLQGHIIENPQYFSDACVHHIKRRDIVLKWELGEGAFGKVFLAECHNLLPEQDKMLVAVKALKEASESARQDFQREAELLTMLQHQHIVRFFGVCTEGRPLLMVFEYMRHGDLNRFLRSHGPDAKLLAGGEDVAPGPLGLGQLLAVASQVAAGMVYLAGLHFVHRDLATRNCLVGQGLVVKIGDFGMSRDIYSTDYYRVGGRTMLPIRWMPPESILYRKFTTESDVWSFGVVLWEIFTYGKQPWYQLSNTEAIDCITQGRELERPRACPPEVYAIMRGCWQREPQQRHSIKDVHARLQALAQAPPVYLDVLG
Sequence of TPM3-TRKA fusion protein (Q96SW2 whole entry, the tested form may be a part): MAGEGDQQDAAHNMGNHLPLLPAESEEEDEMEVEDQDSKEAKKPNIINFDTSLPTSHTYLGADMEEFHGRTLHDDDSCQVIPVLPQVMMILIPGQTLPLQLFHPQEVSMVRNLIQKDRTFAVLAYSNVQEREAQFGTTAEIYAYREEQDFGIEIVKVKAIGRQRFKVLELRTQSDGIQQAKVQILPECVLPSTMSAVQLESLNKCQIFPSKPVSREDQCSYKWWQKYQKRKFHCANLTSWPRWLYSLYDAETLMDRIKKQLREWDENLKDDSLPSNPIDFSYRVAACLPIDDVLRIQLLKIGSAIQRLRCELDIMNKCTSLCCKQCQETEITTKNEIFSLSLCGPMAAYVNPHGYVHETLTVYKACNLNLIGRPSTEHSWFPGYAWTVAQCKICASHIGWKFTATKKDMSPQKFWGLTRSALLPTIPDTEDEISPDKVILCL
Sequence of TPM3-TRKA fusion protein (Q16531 whole entry partner, the tested form may be a part): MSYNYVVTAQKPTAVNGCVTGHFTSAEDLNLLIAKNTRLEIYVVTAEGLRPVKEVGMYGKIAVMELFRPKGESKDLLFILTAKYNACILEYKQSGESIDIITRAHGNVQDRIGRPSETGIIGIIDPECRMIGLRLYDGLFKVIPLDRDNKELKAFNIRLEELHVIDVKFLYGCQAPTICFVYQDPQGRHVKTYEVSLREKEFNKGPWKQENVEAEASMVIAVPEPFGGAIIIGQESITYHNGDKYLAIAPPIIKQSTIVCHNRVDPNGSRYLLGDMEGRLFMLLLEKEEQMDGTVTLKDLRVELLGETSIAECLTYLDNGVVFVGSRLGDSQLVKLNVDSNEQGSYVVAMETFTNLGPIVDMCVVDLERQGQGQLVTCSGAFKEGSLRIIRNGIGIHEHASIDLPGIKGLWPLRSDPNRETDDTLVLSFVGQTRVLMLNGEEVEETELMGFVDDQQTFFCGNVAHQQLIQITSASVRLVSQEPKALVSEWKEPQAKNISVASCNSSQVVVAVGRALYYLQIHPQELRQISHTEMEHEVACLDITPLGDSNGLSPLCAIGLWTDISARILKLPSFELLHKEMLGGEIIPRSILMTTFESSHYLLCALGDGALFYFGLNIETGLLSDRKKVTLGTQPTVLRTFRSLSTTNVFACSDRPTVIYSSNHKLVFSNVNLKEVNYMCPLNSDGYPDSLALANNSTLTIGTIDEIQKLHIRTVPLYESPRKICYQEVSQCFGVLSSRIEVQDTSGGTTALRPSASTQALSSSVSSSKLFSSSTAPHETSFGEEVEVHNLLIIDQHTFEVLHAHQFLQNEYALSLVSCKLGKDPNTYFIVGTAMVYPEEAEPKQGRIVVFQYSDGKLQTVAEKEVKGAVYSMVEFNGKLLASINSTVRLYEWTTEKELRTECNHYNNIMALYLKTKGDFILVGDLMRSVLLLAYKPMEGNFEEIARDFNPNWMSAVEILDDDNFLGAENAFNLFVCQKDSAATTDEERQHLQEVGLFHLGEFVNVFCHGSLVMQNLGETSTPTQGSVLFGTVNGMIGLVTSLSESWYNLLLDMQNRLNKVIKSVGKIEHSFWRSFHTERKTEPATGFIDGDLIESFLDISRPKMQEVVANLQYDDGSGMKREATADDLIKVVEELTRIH

## O=C1CCC(N2C(=O)c3ccc(NCCCN4CCN(c5cccc(-c6cnc7ccc(N8CCC[C@@H]8c8cccc(F)c8)nn67)n5)CC4)cc3C2=O)C(=O)N1 (stereo partly drawn) [TR-171, 2-(2,6-Dioxopiperidin-3-yl)-5-((3-(4-(6-(6-((R)-2-(3-fluorophenyl)pyrrolidin-1-yl)imidazo[1,2-b]pyridazin-3-yl)pyridin-2-yl)piperazin-1-yl)propyl)amino)isoindoline-1,3-dione]
KM12 cells; [1]
  IC50: 0.0052 µM
TPM3-TRKA fusion protein
  TPM3-TRKA degradation in KM12 subcutaneous tumors: exhibited the activities to induce TPM3-TRKA degradation

## O=C1CCC(N2C(=O)c3ccc(CCCN4CCN(c5cccc(-c6cnc7ccc(N8CCC[C@@H]8c8cccc(F)c8)nn67)n5)CC4)cc3C2=O)C(=O)N1 (stereo partly drawn) [TR-172, 2-(2,6-dioxopiperidin-3-yl)-5-(3-(4-(6-(6-((R)-2-(3-fluorophenyl)pyrrolidin-1-yl)imidazo[1,2-b]pyridazin-3-yl)pyridin-2-yl)piperazin-1-yl)propyl)isoindoline-1,3-dione]
KM12 cells; [1]
  IC50: 0.002 µM
TPM3-TRKA fusion protein
  TPM3-TRKA degradation in KM12 subcutaneous tumors: exhibited the activities to induce TPM3-TRKA degradation

## O=C1CCC(N2C(=O)c3ccc(OCCN4CCN(c5cccc(-c6cnc7ccc(N8CCC[C@@H]8c8cccc(F)c8)nn67)n5)CC4)cc3C2=O)C(=O)N1 (stereo partly drawn) [TR-173, 2-(2,6-dioxopiperidin-3-yl)-5-(2-(4-(6-(6-((R)-2-(3-fluorophenyl)pyrrolidin-1-yl)imidazo[1,2-b]pyridazin-3-yl)pyridin-2-yl)piperazin-1-yl)ethoxy)isoindoline-1,3-dione]
KM12 cells; [1]
  IC50: 0.0089 µM
TPM3-TRKA fusion protein
  TPM3-TRKA degradation in KM12 subcutaneous tumors: exhibited the activities to induce TPM3-TRKA degradation

## O=C1CCC(N2C(=O)c3ccc(NCCOCCOCCN4CCN(c5cccc(-c6cnc7ccc(N8CCC[C@H]8c8cccc(F)c8)nn67)n5)CC4)cc3C2=O)C(=O)N1 (stereo partly drawn) [TR-177, 2-(2,6-Dioxopiperidin-3-yl)-5-((2-(2-(2-(4-(6-(6-((S)-2-(3-fluorophenyl)pyrrolidin-1-yl)imidazo[1,2-b]pyridazin-3-yl)pyridin-2-yl)piperazin-1-yl)ethoxy)ethoxy)ethyl)amino)isoindoline-1,3-dione]
KM12 cells; [1]
  IC50: 0.0019 µM
TPM3-TRKA fusion protein
  TPM3-TRKA degradation in KM12 subcutaneous tumors: exhibited the activities to induce TPM3-TRKA degradation

## O=C1CCC(N2C(=O)c3ccc(NC(=O)CN4CCN(c5cccc(-c6cnc7ccc(N8CCC[C@@H]8c8cccc(F)c8)nn67)n5)CC4)cc3C2=O)C(=O)N1 (stereo partly drawn) [TR-233, N-(2-(2,6-Dioxopiperidin-3-yl)-1,3-dioxoisoindolin-5-yl)-2-(4-(6-(6-((R)-2-(3-fluorophenyl)pyrrolidin-1-yl)imidazo[1,2-b]pyridazin-3-yl)pyridin-2-yl)piperazin-1-yl)acetamide]
KM12 cells; [2]
  IC50: 0.005 µM

## O=C1CCC(N2C[C@H](c3cccc(CN4CCN(c5cccc(-c6cnc7ccc(N8CCC[C@@H]8c8cccc(F)c8)nn67)n5)CC4)c3)OC2=O)C(=O)N1 (stereo partly drawn) [TR-235, 3-((S)-5-(3-((4-(6-(6-((R)-2-(3-Fluorophenyl)pyrrolidin-1-yl)imidazo[1,2-b]pyridazin-3-yl)pyridin-2-yl)piperazin-1-yl)methyl)phenyl)-2-oxooxazolidin-3-yl)piperidine-2,6-dione]
KM12 cells; [2]
  IC50: 0.0033 µM

## O=C1CCC(N2C(=O)Cc3c(NCCN4CCN(c5cccc(-c6cnc7ccc(N8CCC[C@@H]8c8cccc(F)c8)nn67)n5)CC4)cccc32)C(=O)N1 (stereo partly drawn) [TR-236, 3-(4-((2-(4-(6-(6-((R)-2-(3-Fluorophenyl)pyrrolidin-1-yl)imidazo[1,2-b]pyridazin-3-yl)pyridin-2-yl)piperazin-1-yl)ethyl)amino)-2-oxoindolin-1-yl)piperidine-2,6-dione]
KM12 cells; [2]
  IC50: 0.099 µM

## O=C1CCC(N2C(=O)c3ccc(CN4CC(N5CCN(c6cccc(-c7cnc8ccc(N9CCC[C@@H]9c9cccc(F)c9)nn78)n6)CC5)C4)cc3C2=O)C(=O)N1 (stereo partly drawn) [TR-237, 2-(2,6-dioxopiperidin-3-yl)-5-((3-(4-(6-(6-((R)-2-(3-fluorophenyl)pyrrolidin-1-yl)imidazo[1,2-b]pyridazin-3-yl)pyridin-2-yl)piperazin-1-yl)azetidin-1-yl)methyl)isoindoline-1,3-dione]
KM12 cells; [2]
  IC50: 0.138 µM

## Cn1c(=O)n(C2CCC(=O)NC2=O)c2cccc(C#CCN3CCN(c4cccc(-c5cnc6ccc(N7CCC[C@@H]7c7cccc(F)c7)nn56)n4)CC3)c21 (stereo partly drawn) [TR-238, 3-(4-(3-(4-(6-(6-((R)-2-(3-fluorophenyl)pyrrolidin-1-yl)imidazo[1,2-b]pyridazin-3-yl)pyridin-2-yl)piperazin-1-yl)prop-1-yn-1-yl)-3-methyl-2-oxo-2,3-dihydro-1H-benzo[d]imidazol-1-yl)piperidine-2,6-dione]
KM12 cells; KM12, 72 h
  IC50: 0.016 µM

## Cn1c(=O)n(C2CCC(=O)NC2=O)c2cccc(C#CCCN3CCN(c4cccc(-c5cnc6ccc(N7CCC[C@@H]7c7cccc(F)c7)nn56)n4)CC3)c21 (stereo partly drawn) [TR-239, 3-(4-(4-(4-(6-(6-((R)-2-(3-fluorophenyl)pyrrolidin-1-yl)imidazo[1,2-b]pyridazin-3-yl)pyridin-2-yl)piperazin-1-yl)but-1-yn-1-yl)-3-methyl-2-oxo-2,3-dihydro-1H-benzo[d]imidazol-1-yl)piperidine-2,6-dione]
KM12 cells; [2]
  IC50: 0.046 µM

## Cn1c(=O)n(C2CCC(=O)NC2=O)c2cccc(CCCN3CCN(c4cccc(-c5cnc6ccc(N7CCC[C@@H]7c7cccc(F)c7)nn56)n4)CC3)c21 (stereo partly drawn) [TR-240, 3-(4-(3-(4-(6-(6-((R)-2-(3-fluorophenyl)pyrrolidin-1-yl)imidazo[1,2-b]pyridazin-3-yl)pyridin-2-yl)piperazin-1-yl)propyl)-3-methyl-2-oxo-2,3-dihydro-1H-benzo[d]imidazol-1-yl)piperidine-2,6-dione]
KM12 cells; [2]
  IC50: 0.016 µM

## Cn1c(=O)n(C2CCC(=O)NC2=O)c2cccc(CCCCN3CCN(c4cccc(-c5cnc6ccc(N7CCC[C@@H]7c7cccc(F)c7)nn56)n4)CC3)c21 (stereo partly drawn) [TR-241, 3-(4-(4-(4-(6-(6-((R)-2-(3-fluorophenyl)pyrrolidin-1-yl)imidazo[1,2-b]pyridazin-3-yl)pyridin-2-yl)piperazin-1-yl)butyl)-3-methyl-2-oxo-2,3-dihydro-1H-benzo[d]imidazol-1-yl)piperidine-2,6-dione]
KM12 cells; KM12, 72 h
  IC50: 0.009 µM

## O=C1CCC(n2c(=O)n(CCN3CCN(c4cccc(-c5cnc6ccc(N7CCC[C@@H]7c7cccc(F)c7)cn56)n4)CC3)c3ccccc32)C(=O)N1 (stereo partly drawn) [TR-242, 3-(3-(2-(4-(6-(6-((R)-2-(3-fluorophenyl)pyrrolidin-1-yl)imidazo[1,2-a]pyridin-3-yl)pyridin-2-yl)piperazin-1-yl)ethyl)-2-oxo-2,3-dihydro-1H-benzo[d]imidazol-1-yl)piperidine-2,6-dione]
KM12 cells; [2]
  IC50: > 0.5 µM

## Cn1c(=O)n(C2CCC(=O)NC2=O)c2cccc(OCCN3CCN(c4cccc(-c5cnc6ccc(N7CCC[C@@H]7c7cccc(F)c7)nn56)n4)CC3)c21 (stereo partly drawn) [TR-244, 3-(4-(2-(4-(6-(6-((R)-2-(3-fluorophenyl)pyrrolidin-1-yl)imidazo[1,2-b]pyridazin-3-yl)pyridin-2-yl)piperazin-1-yl)ethoxy)-3-methyl-2-oxo-2,3-dihydro-1H-benzo[d]imidazol-1-yl)piperidine-2,6-dione]
KM12 cells; [2]
  IC50: 0.298 µM

## Cn1c(=O)n(C2CCC(=O)NC2=O)c2cccc(OCCCN3CCN(c4cccc(-c5cnc6ccc(N7CCC[C@@H]7c7cccc(F)c7)nn56)n4)CC3)c21 (stereo partly drawn) [TR-245, 3-(4-(3-(4-(6-(6-((R)-2-(3-fluorophenyl)pyrrolidin-1-yl)imidazo[1,2-b]pyridazin-3-yl)pyridin-2-yl)piperazin-1-yl)propoxy)-3-methyl-2-oxo-2,3-dihydro-1H-benzo[d]imidazol-1-yl)piperidine-2,6-dione]
KM12 cells; [2]
  IC50: > 0.5 µM

## Cn1c(=O)n(C2CCC(=O)NC2=O)c2ccc(OCCN3CCN(c4cccc(-c5cnc6ccc(N7CCC[C@@H]7c7cccc(F)c7)nn56)n4)CC3)cc21 (stereo partly drawn) [TR-246, 3-(5-(2-(4-(6-(6-((R)-2-(3-fluorophenyl)pyrrolidin-1-yl)imidazo[1,2-b]pyridazin-3-yl)pyridin-2-yl)piperazin-1-yl)ethoxy)-3-methyl-2-oxo-2,3-dihydro-1H-benzo[d]imidazol-1-yl)piperidine-2,6-dione]
KM12 cells; [2]
  IC50: 0.101 µM
